Earlier results, collected in publication PMC10532012, “A Putative Role of Vasopressin/Oxytocin-Type Neuropeptide in Osmoregulation and Feeding Inhibition of Apostichopus japonicus” (International Journal of Molecular Sciences, 2023).
Entries after “also recorded” stand apart in the source; their conditions may differ. Where no end group is shown, it is not given here.

Columns and labels:
mammals = system: mammals
Description: The conservative functions of VP/OT-type neuropeptide in vertebrates have been extensively studied, mainly including water homeostasis, reproduction and social behavior [43, 44, 45]. However, few functional studies of VP/OT-type neuropeptide in deuterostomian invertebrates especially in echinoderms have been reported. Related physiological studies of echinoderm VP/OT-type neu ...

longitudinal muscle = conditions: 10^−7–10^−5 M; positive control
Protocol: To investigate the function of holotocin, longitudinal muscle, intestine and tentacle from A. japonicus were prepared. […] Firstly, the longitudinal muscle and intestine of A. japonicus were dissected and cut into strips approximately 20 mm in length. Then, these preparations were put into a 50 mL glass organ bath containing 2 ...

C. elegans = system: C. elegans
Protocol: (§1) Based on the genes/transcripts encoding VP/OT-type neuropeptide signaling identified from protostomian and deuterostomian animals, the physiological effects of VP/OT superfamily signaling were analyzed and compared. In protostomes, multiple physiological functions of VP/OT-type neuropeptides in different Phylum have been characterized.

Lasius neglectus = conditions: inotocin signaling
Protocol: as §1

rectum = system: rectum; design: method as in PMID 12972329

In the case of “CYFQNCPRG-NH2 (disulfide) [VP, neurohypophyseal hormone …-NH2]”, the antidiuretic activity (mammals) is listed as “had antidiuretic activity” and the blood pressure (mammals) is listed as “increased blood pressure”.

In the case of “CYIQNCPLG-NH2 (disulfide) [OT, neurohypophyseal hormone …-NH2]”, the lactation (mammals) is given as “stimulated lactation” and the uterine contraction (mammals) is given as “caused the uterine contraction”.

For “NGIWYamide [neuropeptide used as positive control for contraction of longitudinal muscles]”, the “contraction of longitudinal muscle, NGIWYamide” value (longitudinal muscle) is listed as “reported to cause contraction of longitudinal muscle preparations; also recorded: confirmed to cause contraction of longitudinal muscles”.

For “Nematocin: VP/OT-type neuropeptide in nematode C. elegans (CFLNSCPYRRY; ends and bridges not checked; cysteine pairing not given here; UniProt Q4R128 20-30, looked up)”, the associative learning (C. elegans) is listed as “neuro-modulatory role in associative learning”.

For inotocin, the energy regulation (Lasius neglectus) is given as “of vital importance in energy regulation”.

For octopressin, the contraction of rectum (rectum) is listed as “tonic contraction”.
